According to article PMC4684281, “Antitumor Effects and Mechanism of Novel Emodin Rhamnoside Derivatives against Human Cancer Cells In Vitro” (PLoS ONE, 2015):
Read-outs that look alike come from different tables or passages of the source.

What was measured:
MCF-7 cells = test: MTT cell viability assay, MCF-7; format: cell-based; conditions: Homo sapiens, MCF7
Procedure: (§1) The viability of cancer cells was evaluated by MTT assay. Briefly, cells were inoculated in 96-well culture plates at the density of 1×10^4/well with complete medium containing 10% fetal calf serum in a final volume of 0.2 mL. Cells were incubated at 37°C for at least 24 hours to allow optimal attachment. When the cells reached 60% confluence, they were treated with Cisplatin, HCPT and emodin rhamnopyranosides derivatives in various concentrations, and incubated in a humidity-controlled 5%CO2 incubator at 37°C for 72 hours. Medium were exchanged once every 24 hours. Cell control group and blank group were set up in the same manner, with each group having six parallel wells. Cell survival was assessed by directly adding 22 μL of 5mg/mL MTT to 0.2 mL medium. After three hours, the formazan precipitate was dissolved in 200μL isopropanol per well, and completely mixed under room temperature. Afterwards, the optical density of each well was detected at 570 nm wavelength by iMark microplate reader (Bio-rad,USA). This experiment was repeated at least three times.

[1] = test system: Caspase-3 gene expression of HepG2 cells; test: RT-qPCR gene expression, Caspase-3; format: cell-based, Human; conditions: 48 hours, control 1.022±0.258
Procedure: HepG2 cells were inoculated in 6-well culture plates at a density of 3×10^5 cells/well, and allowed to attach at 37°C for 24 hours. Then cells were treated with specific concentrations of EM-d-Rha and incubated in a humidified incubator supplied with 5% CO2 at 37°C for 48 hours. Medium were changed once every 24 hours. Afterwards, mRNA was extracted from every group using E.Z.N.A.^TM Total RNA Kit II according to the manufacturer’s instructions. The extracted mRNA was dissolved in 20 μL ddH2O (Qiagen) containing diethyl pyrocarbonate (DEPC). The concentration of mRNA was quantified with a NanoDrop ND-100 device (Thermo Fisher Scientific). cDNA was synthesized using 3μg of the extracted mRNA from each sample with PCR system (BIO-RAD,USA). The cDNA synthesis reaction was prepared according to the manufacturer’s instructions by mixing 3μg mRNA, 4.0μL 5× MMLV buffer, 3 μL oligodT18, 0.5μL 10 mM dNTP solution, 0.8μL RNase inhibitor, 3.7μL MMLV Rtase, and 6.0μL DEPC ddH2O in PCR tubes. The reaction condition was 5min at 70°C, 60 min at 42°C and 10min at 4°C. The products were used for subsequent RT-qPCR analysis. The level of mRNA expression was measured by RT-qPCR using a CFX96^TM C1000 Real-Time PCR System (BIO-RAD, USA).The primers were designed using idt.dna software system (http //www.idtdna.com). The specific primers were: Cyto C: 5′-[…]-3′ (forward), 5′- […] -3′ (reverse); Caspase 3: 5′- CCTACAGCCCATTTC TCCATAC-3′ (forward), 5′-[…]-′ (reverse); β-actin: 5′-[…]-3′ (forward), 5′-[…]-3′ (reverse). The product sizes of Cyto C, Caspase 3 and β-actin were 91bp, 125bp and 107bp, respectively. […]
Master Mix (Promega), 0.3μL of each primer (10μM), and 1.0 μL cDNA template. […] Each sample was analyzed in quadruplicate and mean was used for further analysis. The mRNA expression levels of each sample were quantified by measuring the threshold cycle (CT) values of genes. The relative values of the target gene expression were calculated according to CT values of the target genes and the reference gene (β-actin) by applying Livak and Schmittgen method. […]

K562 cells = test: MTT cell viability assay, K562; format: cell-based; conditions: Homo sapiens
Procedure: as §1

HepG2 cells = test: DNA ladder assay; format: cell-based, Human; conditions: HepG2, 2.5μM, 5.0μM and 10.0μM
Procedure: DNA ladder formation is an important criterion to determine cells apoptosis. To confirm the apoptosis induction effect, the analysis of DNA fragmentation was conducted. HepG2 cells in logarithmic growth phase were inoculated in 10cm diameter culture plates at a density of 5×10^5 cells with 12 mL complete medium containing 10% fetal calf serum, and allowed to attach at 37°C for 24 hours. Afterwards, cells were treated with EM-d-Rha and Cisplatin at a specific concentration. Cells were cultured and harvested as described previously. Finally, DNA of all samples was extracted using the apoptosis DNA ladder detection kit following the manufacturer’s instructions. The DNA fragmentation was assayed by electrophoresis on a 1.5% agarose gel containing […] ethidium bromide (EtBr) at 5V/cm for 2.5hours and photographed under ultraviolet. The size of the DNA fragmentation was compared with the marker (molecular weight standard).

HeLa cells = test: MTT cell viability assay, HeLa; format: cell-based, Human
Procedure: as §1

L02 normal liver cells = test: MTT cell viability assay, L02; format: cell-based; conditions: Homo sapiens; MTT at 72h, n=3, mean±S.E.M; read-out: IC50 for EM-d-Rha, L02
Procedure: as §1

Structure (SMILES): CC(=O)O[C@@H]1[C@@H](O[C@@H]2O[C@@H](C)[C@H](O)[C@@H](OC(C)=O)[C@H]2OC(C)=O)[C@H](C)O[C@@H](Oc2cc(O)c3c(c2)C(=O)c2cc(C)cc(O)c2C3=O)[C@@H]1OC(C)=O [S-8, 3-(2”,3”-Di-O-acetyl-α-L-rhamnopyranosyl-(1→4)-2’,3’-di-O-acetyl-α-L-rhamnopyranosyl)-emodin]
- inhibition at 0.1 µM (MCF-7 cells; MCF-7, 0.1μM, MTT 72h, read-out: The inhibition rate of EM-d-Rha): 16.8 ± 1.4%
- inhibition at 0.5 µM (MCF-7 cells; MCF-7, 0.5μM, MTT 72h, read-out: The inhibition rate of EM-d-Rha): 20.1 ± 3.83%
- inhibition at 2.5 µM (MCF-7 cells; MCF-7, 2.5μM, MTT 72h, read-out: The inhibition rate of EM-d-Rha): 41.4 ± 6.53%
- inhibition at 12.5 µM (MCF-7 cells; MCF-7, 12.5μM, MTT 72h, read-out: The inhibition rate of EM-d-Rha): 62.7 ± 6.81%
- inhibition at 62.5 µM (MCF-7 cells; MCF-7, 62.5μM, MTT 72h, read-out: The inhibition rate of EM-d-Rha): 77.1 ± 5.1%
- IC50 (MCF-7 cells; MTT at 72h, n=3, mean±S.E.M, read-out: IC50 for EM-d-Rha, MCF-7): 8.56 ± 1.04 µM
- Caspase-3 mRNA expression level relative to controls ([1]; HepG2, 0.70μM): 0.949±0.259 fold
- Caspase-3 mRNA expression level relative to controls ([1]; HepG2, 1.40μM): 0.900±0.190 fold
- Caspase-3 mRNA expression level relative to controls ([1]; HepG2, 5.60μM): 4.413±3.730 fold
- IC50 (K562 cells; K562, MTT at 72h, n=3, mean±S.E.M, read-out: IC50 for EM-d-Rha, K562): 2.8 ± 0.11 µM
- inhibition at 0.1 µM (K562 cells; K562, 0.1μM, MTT 72h, read-out: The inhibition rate of EM-d-Rha): 0%
- inhibition at 0.5 µM (K562 cells; K562, 0.5μM, MTT 72h, read-out: The inhibition rate of EM-d-Rha): 15.1 ± 1.13%
- inhibition at 2.5 µM (K562 cells; K562, 2.5μM, MTT 72h, read-out: The inhibition rate of EM-d-Rha): 45.86 ± 0.11%
- inhibition at 12.5 µM (K562 cells; K562, 12.5μM, MTT 72h, read-out: The inhibition rate of EM-d-Rha): 78.74 ± 0.01%
- inhibition at 62.5 µM (K562 cells; K562, 62.5μM, MTT 72h, read-out: The inhibition rate of EM-d-Rha): 80.64 ± 0.03%
- DNA fragmentation (agarose gel electrophoresis) (HepG2 cells): typical ladder or fragmentation shape
- IC50 (HeLa cells; Homo sapiens, HeLa, MTT at 72h, n=3, mean±S.E.M, read-out: IC50 for EM-d-Rha, HeLa): 1.51 ± 0.31 µM
- IC50 (HeLa cells; Homo sapiens, HeLa, MTT, 72 hours, read-out: IC50 values, HeLa): 1.15 µg/mL
- inhibition at 0.1 µM (HeLa cells; Homo sapiens, HeLa, 0.1μM, MTT 72h, read-out: The inhibition rate of EM-d-Rha): 14.8 ± 5.61%
- inhibition at 0.5 µM (HeLa cells; Homo sapiens, HeLa, 0.5μM, MTT 72h, read-out: The inhibition rate of EM-d-Rha): 37.6 ± 2.81%
- inhibition at 2.5 µM (HeLa cells; Homo sapiens, HeLa, 2.5μM, MTT 72h, read-out: The inhibition rate of EM-d-Rha): 49.2 ± 3.78%
- inhibition at 12.5 µM (HeLa cells; Homo sapiens, HeLa, 12.5μM, MTT 72h, read-out: The inhibition rate of EM-d-Rha): 69.1 ± 3.36%
- inhibition at 62.5 µM (HeLa cells; Homo sapiens, HeLa, 62.5μM, MTT 72h, read-out: The inhibition rate of EM-d-Rha): 89.74 ± 0.63%
- Decrease of IC50 compared to the IC50 of emodin, HeLa (HeLa cells; from Table 1): 10.56 fold
- IC50 (L02 normal liver cells): 19.7 ± 1.7 µM
